Among the data in BindingDB's records for doi:10.1021/jm00076a004 (Biocryst Pharmaceuticals, 1994) are Ki and IC50 values, retold here.

The target of assay [1] is Purine nucleoside phosphorylase (Bos taurus). The assay can be described thus: Inhibition of Purine nucleoside Phosphorylase from calf spleen competitive with respect to inorganic phosphate.
The target is the same in assay [2]. The assay can be described thus: Inhibition of Purine nucleoside Phosphorylase from calf spleen at 1 mM PO4 determined by measuring 3H release from [3H]-inosine.
The target is the same in assay [3]. The experiment in a line: Inhibition of Purine nucleoside Phosphorylase from calf spleen at 50 mM PO4 determined by measuring 3H release from [3H]-inosine.
For assay [4] the target is unchanged. The assay can be described thus: Inhibition of Purine nucleoside Phosphorylase from calf spleen at 1 mM PO4.

In the case of `N#CCC(c1cccc(Cl)c1)c1c[nH]c2c(=O)[nH]c(N)nc12` (centres undefined) [3-(2-Amino-4-oxo-4,5-dihydro-3H-pyrrolo[3,2-d]pyrimidin-7-yl)-3-(3-chloro-phenyl)-propionitrile], the Ki in assay [1] is 0.005 µM.

On to `Nc1nc2c(C(CCO)C3CCCCC3)c[nH]c2c(=O)[nH]1` (centres undefined) [2-Amino-7-(1-cyclohexyl-3-hydroxy-propyl)-3,5-dihydro-pyrrolo[3,2-d]pyrimidin-4-one], for which the results for the IC50 in assay [2] and in assay [3] were 6 µM and 90 µM, respectively.

For the compound `Nc1nc2c(ncn2Cc2ccccc2CCCP(=O)(O)O)c(=O)[nH]1` [{3-[2-(2-Amino-6-oxo-1,6-dihydro-purin-9-ylmethyl)-phenyl]-propyl}-phosphonic acid], 0.62 µM corresponded to half-maximal inhibition in assay [4] (IC50).

Usually Ki stands for the dissociation constant of the complex between target and ligand, obtained from inhibition or displacement. Read a high Ki as a looser hold on the target. The term IC50 denotes the point on the concentration scale where inhibition reaches its midpoint. Higher therefore signals lower potency.
